This is an account of results in ChEMBL document CHEMBL1147199, “Exploration of the correlation between the structure, hemolytic activity, and cytotoxicity of steroid saponins” (Bioorg Med Chem, 2007).

The structures appear in SMILES notation.

A short description of this series: Cytotoxicity against human erythrocytes assessed as hemolytic activity after 60 mins. Format: cell-based, Erythrocyte. To be noted: read-out: HD50.
As to `C[C@@H]1CC[C@@]2(OC1)O[C@H]1C[C@H]3[C@@H]4CC=C5C[C@@H](O[C@@H]6O[C@H](CO)[C@@H](O[C@H]7O[C@H](C)[C@@H](OCCNC(=O)COc8ccccc8)[C@H](O)[C@@H]7O)[C@H](O)[C@H]6O[C@H]6O[C@H](C)[C@@H](O)[C@H](O)[C@@H]6O)CC[C@]5(C)[C@H]4CC[C@]3(C)[C@H]1[C@@H]2C`, the HC50 at 1 h was determined as 7.6 µM. Under `C[C@@H]1CC[C@@]2(OC1)O[C@H]1C[C@H]3[C@@H]4CC=C5C[C@@H](O[C@@H]6O[C@H](CO)[C@@H](O[C@H]7O[C@H](C)[C@@H](OCCNC(=O)COc8ccc(Cl)cc8)[C@H](O)[C@@H]7O)[C@H](O)[C@H]6O[C@H]6O[C@H](C)[C@@H](O)[C@H](O)[C@@H]6O)CC[C@]5(C)[C@H]4CC[C@]3(C)[C@H]1[C@@H]2C` stands 2.9 µM; under `C[C@@H]1CC[C@@]2(OC1)O[C@H]1C[C@H]3[C@@H]4CC=C5C[C@@H](O[C@@H]6O[C@H](CNC(=O)/C=C/c7ccccc7)[C@@H](O[C@H]7O[C@H](C)[C@@H](O)[C@H](O)[C@@H]7O)[C@H](O)[C@H]6O[C@H]6O[C@H](C)[C@@H](O)[C@H](O)[C@@H]6O)CC[C@]5(C)[C@H]4CC[C@]3(C)[C@H]1[C@@H]2C`, 11.8 µM; under `C=CCCCCCCCCC(=O)NCCO[C@H]1[C@H](O)[C@H](O)[C@@H](O[C@H]2[C@H](O)[C@@H](O[C@H]3O[C@H](C)[C@@H](O)[C@H](O)[C@@H]3O)[C@H](O[C@H]3CC[C@@]4(C)C(=CC[C@H]5[C@@H]6C[C@@H]7O[C@]8(CC[C@@H](C)CO8)[C@@H](C)[C@@H]7[C@@]6(C)CC[C@@H]54)C3)O[C@@H]2CO)O[C@@H]1C`, 3.8 µM.

Consider `CC(=O)NCCO[C@H]1[C@H](O)[C@H](O)[C@@H](O[C@H]2[C@H](O)[C@@H](O[C@H]3O[C@H](C)[C@@H](O)[C@H](O)[C@@H]3O)[C@H](O[C@H]3CC[C@@]4(C)C(=CC[C@H]5[C@@H]6C[C@@H]7O[C@]8(CC[C@@H](C)CO8)[C@@H](C)[C@@H]7[C@@]6(C)CC[C@@H]54)C3)O[C@@H]2CO)O[C@@H]1C`, for which the HC50 at 1 h worked out at 9.2 µM. As to `COc1ccc(C(=O)NCCO[C@H]2[C@H](O)[C@H](O)[C@@H](O[C@H]3[C@H](O)[C@@H](O[C@H]4O[C@H](C)[C@@H](O)[C@H](O)[C@@H]4O)[C@H](O[C@H]4CC[C@@]5(C)C(=CC[C@H]6[C@@H]7C[C@@H]8O[C@]9(CC[C@@H](C)CO9)[C@@H](C)[C@@H]8[C@@]7(C)CC[C@@H]65)C4)O[C@@H]3CO)O[C@@H]2C)cc1`, the HC50 at 1 h amounted to 4.5 µM. For the compound `C[C@@H]1CC[C@@]2(OC1)O[C@H]1C[C@H]3[C@@H]4CC=C5C[C@@H](O[C@@H]6O[C@H](CO)[C@@H](O[C@H]7O[C@H](C)[C@@H](OCCNC(=O)OCC8c9ccccc9-c9ccccc98)[C@H](O)[C@@H]7O)[C@H](O)[C@H]6O[C@H]6O[C@H](C)[C@@H](O)[C@H](O)[C@@H]6O)CC[C@]5(C)[C@H]4CC[C@]3(C)[C@H]1[C@@H]2C`, the HC50 at 1 h was determined as 3 µM. To `C[C@@H]1CC[C@@]2(OC1)O[C@H]1C[C@H]3[C@@H]4CC=C5C[C@@H](O[C@@H]6O[C@H](CNC(=O)COc7ccc(Cl)cc7)[C@@H](O[C@H]7O[C@H](C)[C@@H](O)[C@H](O)[C@@H]7O)[C@H](O)[C@H]6O[C@H]6O[C@H](C)[C@@H](O)[C@H](O)[C@@H]6O)CC[C@]5(C)[C@H]4CC[C@]3(C)[C@H]1[C@@H]2C` belongs 9.4 µM. `C[C@@H]1CC[C@@]2(OC1)O[C@H]1C[C@H]3[C@@H]4CC=C5C[C@@H](O[C@@H]6O[C@H](CO)[C@@H](O[C@H]7O[C@H](C)[C@@H](OCCNC(=O)/C=C/c8ccccc8)[C@H](O)[C@@H]7O)[C@H](O)[C@H]6O[C@H]6O[C@H](C)[C@@H](O)[C@H](O)[C@@H]6O)CC[C@]5(C)[C@H]4CC[C@]3(C)[C@H]1[C@@H]2C`: the HC50 at 1 h was 1.5 µM. For `C[C@@H]1CC[C@@]2(OC1)O[C@H]1C[C@H]3[C@@H]4CC=C5C[C@@H](O[C@@H]6O[C@H](CNS(=O)(=O)c7cccc8c(N(C)C)cccc78)[C@@H](O[C@H]7O[C@H](C)[C@@H](O)[C@H](O)[C@@H]7O)[C@H](O)[C@H]6O[C@H]6O[C@H](C)[C@@H](O)[C@H](O)[C@@H]6O)CC[C@]5(C)[C@H]4CC[C@]3(C)[C@H]1[C@@H]2C`, the HC50 at 1 h was determined as 6.9 µM. For the compound `C/C=C/C=C/C(=O)NCCO[C@H]1[C@H](O)[C@H](O)[C@@H](O[C@H]2[C@H](O)[C@@H](O[C@H]3O[C@H](C)[C@@H](O)[C@H](O)[C@@H]3O)[C@H](O[C@H]3CC[C@@]4(C)C(=CC[C@H]5[C@@H]6C[C@@H]7O[C@]8(CC[C@@H](C)CO8)[C@@H](C)[C@@H]7[C@@]6(C)CC[C@@H]54)C3)O[C@@H]2CO)O[C@@H]1C`, the HC50 at 1 h is 1.6 µM. In the case of `C[C@@H]1CC[C@@]2(OC1)O[C@H]1C[C@H]3[C@@H]4CC=C5C[C@@H](O[C@@H]6O[C@H](CO)[C@@H](O[C@H]7O[C@H](C)[C@@H](OCCNS(=O)(=O)c8cccc9c(N(C)C)cccc89)[C@H](O)[C@@H]7O)[C@H](O)[C@H]6O[C@H]6O[C@H](C)[C@@H](O)[C@H](O)[C@@H]6O)CC[C@]5(C)[C@H]4CC[C@]3(C)[C@H]1[C@@H]2C`, the HC50 at 1 h stood at 1.3 µM. With `C[C@@H]1CC[C@@]2(OC1)O[C@H]1C[C@H]3[C@@H]4CC=C5C[C@@H](O[C@@H]6O[C@H](CO)[C@@H](O[C@H]7O[C@H](C)[C@@H](OCCNC(=O)C(F)(F)F)[C@H](O)[C@@H]7O)[C@H](O)[C@H]6O[C@H]6O[C@H](C)[C@@H](O)[C@H](O)[C@@H]6O)CC[C@]5(C)[C@H]4CC[C@]3(C)[C@H]1[C@@H]2C`, the HC50 at 1 h is 5.7 µM. On to `C[C@@H]1CC[C@@]2(OC1)O[C@H]1C[C@H]3[C@@H]4CC=C5C[C@@H](O[C@@H]6O[C@H](CO)[C@@H](O[C@H]7O[C@H](C)[C@@H](OCCNC(=O)CCCCl)[C@H](O)[C@@H]7O)[C@H](O)[C@H]6O[C@H]6O[C@H](C)[C@@H](O)[C@H](O)[C@@H]6O)CC[C@]5(C)[C@H]4CC[C@]3(C)[C@H]1[C@@H]2C`, for which the HC50 at 1 h stood at 3.8 µM. Under `CCCCCCCCCCCCCCCCCC(=O)NCCO[C@H]1[C@H](O)[C@H](O)[C@@H](O[C@H]2[C@H](O)[C@@H](O[C@H]3O[C@H](C)[C@@H](O)[C@H](O)[C@@H]3O)[C@H](O[C@H]3CC[C@@]4(C)C(=CC[C@H]5[C@@H]6C[C@@H]7O[C@]8(CC[C@@H](C)CO8)[C@@H](C)[C@@H]7[C@@]6(C)CC[C@@H]54)C3)O[C@@H]2CO)O[C@@H]1C` stands above 50 µg/mL; under `C[C@@H]1CC[C@@]2(OC1)O[C@H]1C[C@H]3[C@@H]4CC=C5C[C@@H](O[C@@H]6O[C@H](CNC(=O)OCC7c8ccccc8-c8ccccc87)[C@@H](O[C@H]7O[C@H](C)[C@@H](O)[C@H](O)[C@@H]7O)[C@H](O)[C@H]6O[C@H]6O[C@H](C)[C@@H](O)[C@H](O)[C@@H]6O)CC[C@]5(C)[C@H]4CC[C@]3(C)[C@H]1[C@@H]2C`, 9 µM.

With `CCCCCCCCCCCCCC(=O)NCCO[C@H]1[C@H](O)[C@H](O)[C@@H](O[C@H]2[C@H](O)[C@@H](O[C@H]3O[C@H](C)[C@@H](O)[C@H](O)[C@@H]3O)[C@H](O[C@H]3CC[C@@]4(C)C(=CC[C@H]5[C@@H]6C[C@@H]7O[C@]8(CC[C@@H](C)CO8)[C@@H](C)[C@@H]7[C@@]6(C)CC[C@@H]54)C3)O[C@@H]2CO)O[C@@H]1C`, the HC50 at 1 h is above 50 µg/mL. To `C[C@@H]1CC[C@@]2(OC1)O[C@H]1C[C@H]3[C@@H]4CC=C5C[C@@H](O[C@@H]6O[C@H](CO)[C@@H](O[C@H]7O[C@H](C)[C@@H](OCCNC(=O)c8ccccc8)[C@H](O)[C@@H]7O)[C@H](O)[C@H]6O[C@H]6O[C@H](C)[C@@H](O)[C@H](O)[C@@H]6O)CC[C@]5(C)[C@H]4CC[C@]3(C)[C@H]1[C@@H]2C` belongs 49.3 µM; to `C[C@@H]1CC[C@@]2(OC1)O[C@H]1C[C@H]3[C@@H]4CC=C5C[C@@H](O[C@@H]6O[C@H](CO)[C@@H](O[C@H]7O[C@H](C)[C@@H](OCCNC(=O)c8ccccc8I)[C@H](O)[C@@H]7O)[C@H](O)[C@H]6O[C@H]6O[C@H](C)[C@@H](O)[C@H](O)[C@@H]6O)CC[C@]5(C)[C@H]4CC[C@]3(C)[C@H]1[C@@H]2C`, 1.7 µM. Take `C[C@@H]1CC[C@@]2(OC1)O[C@H]1C[C@H]3[C@@H]4CC=C5C[C@@H](O[C@@H]6O[C@H](CO)[C@@H](O[C@H]7O[C@H](C)[C@@H](OCCNC(=O)c8ccc([N+](=O)[O-])cc8)[C@H](O)[C@@H]7O)[C@H](O)[C@H]6O[C@H]6O[C@H](C)[C@@H](O)[C@H](O)[C@@H]6O)CC[C@]5(C)[C@H]4CC[C@]3(C)[C@H]1[C@@H]2C`: the HC50 at 1 h was determined as 4.9 µM. For the compound `C[C@@H]1CC[C@@]2(OC1)O[C@H]1C[C@H]3[C@@H]4CC=C5C[C@@H](O[C@@H]6O[C@H](CO)[C@@H](O[C@H]7O[C@H](C)[C@@H](OCCN)[C@H](O)[C@@H]7O)[C@H](O)[C@H]6O[C@H]6O[C@H](C)[C@@H](O)[C@H](O)[C@@H]6O)CC[C@]5(C)[C@H]4CC[C@]3(C)[C@H]1[C@@H]2C`, the HC50 at 1 h came out at 2.6 µM.

As to `C[C@@H]1CC[C@@]2(OC1)O[C@H]1C[C@H]3[C@@H]4CC=C5C[C@@H](O[C@@H]6O[C@H](CO)[C@@H](O[C@H]7O[C@H](C)[C@@H](OCCN=[N+]=[N-])[C@H](O)[C@@H]7O)[C@H](O)[C@H]6O[C@H]6O[C@H](C)[C@@H](O)[C@H](O)[C@@H]6O)CC[C@]5(C)[C@H]4CC[C@]3(C)[C@H]1[C@@H]2C`, the HC50 at 1 h was 9.7 µM.
